Experimental data from PubChem BioAssay AID2060892 (Molecular Pharmacology Branch, DTP, NCI, 2025).
pIC50: −log10 of the molar value.

Tested on: HOP-62 complex spheroids with HUVEC/MSC, viability
Test: Anticancer human tumor HOP-62 cell line growth inhibition [RAS];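 further: spheroids exposed to agents for seven days before readout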;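 on viability, T/C: 100% = DMSO vehicle control viability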
Conditions: for pIC50: curve of first compound; for viability, T/C: stronger effect = lower value
How it was run: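 Agents were tested in combination matrices in half-log decrements from a top concentration at or near clinical Cmax (10 microM if undetermined). Targets were multi-cell spheroids of tumour lines plus HUVEC and MSC stromal cells.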

[1] = second compound 0.000949 µM, first compound 0.0316 µM
[2] = second compound 0.000949 µM, first compound 0.1 µM
[3] = second compound 0.000949 µM, first compound 0.316 µM
[4] = second compound 0.000949 µM, first compound 1 µM
[5] = second compound 0.003 µM, first compound 0.0316 µM
[6] = second compound 0.003 µM, first compound 0.1 µM
[7] = second compound 0.003 µM, first compound 0.316 µM
[8] = second compound 0.003 µM, first compound 1 µM
[9] = second compound 0.00949 µM, first compound 0.0316 µM
[10] = second compound 0.00949 µM, first compound 0.1 µM
[11] = second compound 0.00949 µM, first compound 0.316 µM
[12] = second compound 0.00949 µM, first compound 1 µM
[13] = second compound 0.03 µM, first compound 0.0316 µM
[14] = second compound 0.03 µM, first compound 0.1 µM
[15] = second compound 0.03 µM, first compound 0.316 µM
[16] = second compound 0.03 µM, first compound 1 µM
[17] = second compound 0.0949 µM, first compound 0.0316 µM
[18] = second compound 0.0949 µM, first compound 0.1 µM
[19] = second compound 0.0949 µM, first compound 0.316 µM
[20] = second compound 0.0949 µM, first compound 1 µM
[21] = second compound 0.3 µM, first compound 0.0316 µM
[22] = second compound 0.3 µM, first compound 0.1 µM
[23] = second compound 0.3 µM, first compound 0.316 µM
[24] = second compound 0.3 µM, first compound 1 µM

## CC1(O)CCCC1n1c(=O)c(C(F)F)cc2cnc(NC3CCN(S(C)(=O)=O)CC3)nc21 (stereo unspecified) + C#Cc1c(F)ccc2cc(O)cc(-c3ncc4c(N5CC6CCC(C5)N6)nc(OCC56CCCN5CC(F)C6)nc4c3F)c12
Second compound 0.0316 µM
  pIC50: 6.42
Second compound 0.1 µM
  pIC50: 6.40
Second compound 0.316 µM
  pIC50: 6.46
Second compound 1 µM
  pIC50: 6.49
Second compound 3.16 µM
  pIC50: 6.84
Second compound 10 µM
  pIC50: > 7.50
Second compound 0.0316 µM, first compound 0.0316 µM
  viability, T/C: 87.9%
Second compound 0.0316 µM, first compound 0.1 µM
  viability, T/C: 53.1%
Second compound 0.0316 µM, first compound 0.316 µM
  viability, T/C: 43.3%
Second compound 0.0316 µM, first compound 1 µM
  viability, T/C: 40.5%
Second compound 0.0316 µM, first compound 3.16 µM
  viability, T/C: 47.8%
Second compound 0.0316 µM, first compound 10 µM
  viability, T/C: 0.9%
Second compound 0.1 µM, first compound 0.0316 µM
  viability, T/C: 91.3%
Second compound 0.1 µM, first compound 0.1 µM
  viability, T/C: 52.2%
Second compound 0.1 µM, first compound 0.316 µM
  viability, T/C: 45.3%
Second compound 0.1 µM, first compound 1 µM
  viability, T/C: 48.8%
Second compound 0.1 µM, first compound 3.16 µM
  viability, T/C: 35.7%
Second compound 0.1 µM, first compound 10 µM
  viability, T/C: 1.45%
Second compound 0.316 µM, first compound 0.0316 µM
  viability, T/C: 91.4%
Second compound 0.316 µM, first compound 0.1 µM
  viability, T/C: 50.7%
Second compound 0.316 µM, first compound 0.316 µM
  viability, T/C: 38%
Second compound 0.316 µM, first compound 1 µM
  viability, T/C: 42%
Second compound 0.316 µM, first compound 3.16 µM
  viability, T/C: 42.2%
Second compound 0.316 µM, first compound 10 µM
  viability, T/C: 1.44%
Second compound 1 µM, first compound 0.0316 µM
  viability, T/C: 84.7%
Second compound 1 µM, first compound 0.1 µM
  viability, T/C: 53.6%
Second compound 1 µM, first compound 0.316 µM
  viability, T/C: 37.2%
Second compound 1 µM, first compound 1 µM
  viability, T/C: 45.2%
Second compound 1 µM, first compound 3.16 µM
  viability, T/C: 40%
Second compound 1 µM, first compound 10 µM
  viability, T/C: 3.73%
Second compound 3.16 µM, first compound 0.0316 µM
  viability, T/C: 66.6%
Second compound 3.16 µM, first compound 0.1 µM
  viability, T/C: 47.9%
Second compound 3.16 µM, first compound 0.316 µM
  viability, T/C: 34%
Second compound 3.16 µM, first compound 1 µM
  viability, T/C: 41.4%
Second compound 3.16 µM, first compound 3.16 µM
  viability, T/C: 27.6%
Second compound 3.16 µM, first compound 10 µM
  viability, T/C: 1.45%
Second compound 10 µM, first compound 0.0316 µM
  viability, T/C: 42%
Second compound 10 µM, first compound 0.1 µM
  viability, T/C: 37.3%
Second compound 10 µM, first compound 0.316 µM
  viability, T/C: 27.8%
Second compound 10 µM, first compound 1 µM
  viability, T/C: 29.4%
Second compound 10 µM, first compound 3.16 µM
  viability, T/C: 32.5%
Second compound 10 µM, first compound 10 µM
  viability, T/C: 1.15%

## C=CC(=O)Nc1cc(Nc2nccc(-c3cn(C)c4ccccc34)n2)c(OC)cc1N(C)CCN(C)C + CCn1c(-c2cccnc2C(C)OC)c2c3cc(ccc31)N1CCOC(CC(NC(=O)C(C(C)C)N(C)C(=O)C3(F)CCN(C(=O)C#CC(C)(C)N(C)C)CC3)C(=O)N3CCCC(N3)C(=O)OCC(C)(C)C2)C1
Second compound 0.000949 µM
  pIC50: < 6.00
Second compound 0.003 µM
  pIC50: < 6.00
Second compound 0.00949 µM
  pIC50: < 6.00
Second compound 0.03 µM
  pIC50: < 6.00
Second compound 0.0949 µM
  pIC50: < 6.00
Second compound 0.3 µM
  pIC50: < 6.00
Second compound 0.000949 µM, first compound 0.00316 µM
  viability, T/C: 100%
Second compound 0.000949 µM, first compound 0.01 µM
  viability, T/C: 107%
[1]
  viability, T/C: 83.9%
[2]
  viability, T/C: 112%
[3]
  viability, T/C: 100%
[4]
  viability, T/C: 54%
Second compound 0.003 µM, first compound 0.00316 µM
  viability, T/C: 94.1%
Second compound 0.003 µM, first compound 0.01 µM
  viability, T/C: 95.4%
[5]
  viability, T/C: 94.1%
[6]
  viability, T/C: 105%
[7]
  viability, T/C: 103%
[8]
  viability, T/C: 71.7%
Second compound 0.00949 µM, first compound 0.00316 µM
  viability, T/C: 92.3%
Second compound 0.00949 µM, first compound 0.01 µM
  viability, T/C: 84.2%
[9]
  viability, T/C: 85.3%
[10]
  viability, T/C: 90.4%
[11]
  viability, T/C: 73.4%
[12]
  viability, T/C: 54.6%
Second compound 0.03 µM, first compound 0.00316 µM
  viability, T/C: 97.5%
Second compound 0.03 µM, first compound 0.01 µM
  viability, T/C: 90.5%
[13]
  viability, T/C: 83.4%
[14]
  viability, T/C: 78.6%
[15]
  viability, T/C: 60.1%
[16]
  viability, T/C: 66.3%
Second compound 0.0949 µM, first compound 0.00316 µM
  viability, T/C: 96.7%
Second compound 0.0949 µM, first compound 0.01 µM
  viability, T/C: 80%
[17]
  viability, T/C: 84.2%
[18]
  viability, T/C: 67.3%
[19]
  viability, T/C: 64.3%
[20]
  viability, T/C: 58.6%
Second compound 0.3 µM, first compound 0.00316 µM
  viability, T/C: 84%
Second compound 0.3 µM, first compound 0.01 µM
  viability, T/C: 84%
[21]
  viability, T/C: 73.5%
[22]
  viability, T/C: 62.1%
[23]
  viability, T/C: 60.2%
[24]
  viability, T/C: 54.6%

## C[C@@H](NC(=O)c1ncnc(N)c1Cl)c1ncc(C(=O)Nc2cc(C(F)(F)F)c(Cl)cn2)s1 + CCn1c(-c2cc(N3CCN(C)CC3)cnc2C(C)OC)c2c3cc(ccc31)-c1csc(n1)CC(NC(=O)C1CC1C)C(=O)N1CCCC(N1)C(=O)OCC(C)(C)C2
Second compound 0.000949 µM
  pIC50: < 5.00
Second compound 0.003 µM
  pIC50: < 5.00
Second compound 0.00949 µM
  pIC50: < 5.00
Second compound 0.03 µM
  pIC50: < 5.00
Second compound 0.0949 µM
  pIC50: 6.47
Second compound 0.3 µM
  pIC50: > 7.50
[1]
  viability, T/C: 111%
[2]
  viability, T/C: 119%
[3]
  viability, T/C: 93.4%
[4]
  viability, T/C: 115%
Second compound 0.000949 µM, first compound 3.16 µM
  viability, T/C: 114%
Second compound 0.000949 µM, first compound 10 µM
  viability, T/C: 74.6%
[5]
  viability, T/C: 107%
[6]
  viability, T/C: 101%
[7]
  viability, T/C: 96.7%
[8]
  viability, T/C: 104%
Second compound 0.003 µM, first compound 3.16 µM
  viability, T/C: 94.7%
Second compound 0.003 µM, first compound 10 µM
  viability, T/C: 60.6%
[9]
  viability, T/C: 80.9%
[10]
  viability, T/C: 99.5%
[11]
  viability, T/C: 76.4%
[12]
  viability, T/C: 83.7%
Second compound 0.00949 µM, first compound 3.16 µM
  viability, T/C: 75.9%
Second compound 0.00949 µM, first compound 10 µM
  viability, T/C: 51.3%
[13]
  viability, T/C: 65.9%
[14]
  viability, T/C: 56.7%
[15]
  viability, T/C: 62.1%
[16]
  viability, T/C: 66.4%
Second compound 0.03 µM, first compound 3.16 µM
  viability, T/C: 47.8%
Second compound 0.03 µM, first compound 10 µM
  viability, T/C: 57%
[17]
  viability, T/C: 46.9%
[18]
  viability, T/C: 56.4%
[19]
  viability, T/C: 48.2%
[20]
  viability, T/C: 54.4%
Second compound 0.0949 µM, first compound 3.16 µM
  viability, T/C: 38.6%
Second compound 0.0949 µM, first compound 10 µM
  viability, T/C: 55%
[21]
  viability, T/C: 47.7%
[22]
  viability, T/C: 49.6%
[23]
  viability, T/C: 43.9%
[24]
  viability, T/C: 41.3%
Second compound 0.3 µM, first compound 3.16 µM
  viability, T/C: 45.4%
Second compound 0.3 µM, first compound 10 µM
  viability, T/C: 47.3%
